Measurements from patent US9049863B2, “Substituted (3R,4R)-4-cyan-3,4-diphenylbutanoates, method for the production thereof and use thereof as herbicides and plant growth regulators” (Bayer Intellectual Property GmbH, priority 2011, dated 2015).

Legend:
Assay type in all cases: in vivo
[1] = system: a plurality of harmful plants; assay: Herbicidal pre-emergence action; settings: 320 g or less of active substance per hectare
Description: Seeds of monocotyledonous and dicotyledonous weed plants and crop plants are placed in wood-fiber pots in sandy loam and covered with soil. The compounds (I) according to the invention, formulated in the form of wettable powders (WP), are then applied as aqueous suspension or emulsion at a water application rate of 600 l/ha (converted) with the addition of 0.2% of wetting agent to the surface of the covering soil.
After the treatment, the pots are placed in a greenhouse and kept under good growth conditions for the test plants. After about 3 weeks, the effect of the preparations is scored visually in comparison with untreated controls as percentages. For example, 100% activity=the plants have died, 50% herbicidal activity or damage=the plants have been reduced by 50% or the plant mass has been reduced by 50%, 0% activity=like control plants.

[2] = system: Viola tricolor; assay: Herbicidal action and crop plant compatibility, pre-emergence (3.2); settings: 80 g/ha, about 4 weeks
Description: (§1) 3.2 In further trials in the greenhouse, seeds of crop plants and seeds of harmful plants are placed in pots in sandy loam soil, covered with earth and cultivated under good growth conditions. The compounds (I) according to the invention, formulated in the form of wettable powders (WP), are then applied as aqueous suspension or emulsion at a water application rate of 300 l/ha (converted) with the addition of 0.2% of wetting agent to the surface of the covering soil. After the test plants have been kept in the greenhouse under optimum growth conditions for about 4 weeks, the activity of the preparations is rated visually in comparison to untreated controls in percent (%): For example, 100% activity=the plants have died, 50% herbicidal activity or damage=the plants have been reduced by 50% or the plant mass has been reduced by 50%, 0% activity=like control plants.

[3] = system: Echinochloa crus-galli; assay: as above; settings: 80 g/ha, about 4 weeks
Description: as §1

[4] = system: Polygonum convolvulus; assay: as above; settings: 80 g/ha, about 4 weeks
Description: as §1

[5] = system: Amaranthus retroflexus; assay: as above; settings: 80 g/ha, about 4 weeks
Description: as §1

[6] = system: Veronica persica; assay: as above; settings: 80 g/ha, about 4 weeks
Description: as §1

[7] = system: Avena fatua; assay: as above; settings: 80 g/ha, about 4 weeks
Description: as §1

[8] = system: Setaria viridis; assay: as above; settings: 80 g/ha, about 4 weeks
Description: as §1

[9] = system: Lolium multiflorum; assay: as above; settings: 80 g/ha, about 4 weeks
Description: as §1

[10] = system: Alopecurus myosuroides; assay: as above; settings: 80 g/ha, about 4 weeks
Description: as §1

[11] = system: Viola tricolor; assay: Herbicidal action and crop plant compatibility, post-emergence (3.3); settings: 80 g/ha, 4 weeks after the treatment
Protocol: (§2) 3.3 In further trials in the greenhouse, seeds of crop plants and seeds of harmful plants are placed in pots in sandy loam soil, covered with earth and cultivated under good growth conditions. The test plants are treated at the 2-3-leaf stage, where the compounds (I) according to the invention, formulated in the form of wettable powders (WP), are applied by spraying as aqueous suspension or emulsion at a water application rate of […] (converted) with the addition of 0.2% of wetting agent to the green parts of the plants. 4 weeks after the treatment and after the test plants have been kept in the greenhouse under optimum growth conditions, the activity of the preparations is rated visually in comparison to untreated controls in percent (%): For example, 100% activity=the plants have died, 50% herbicidal activity or damage=the plants have been reduced by 50% or the plant mass has been reduced by 50%, 0% activity=like control plants.

[12] = system: Echinochloa crus-galli; assay: as above; settings: 80 g/ha, 4 weeks after the treatment
Protocol: as §2

[13] = system: Polygonum convolvulus; assay: as above; settings: 80 g/ha, 4 weeks after the treatment
Protocol: as §2

[14] = system: Veronica persica; assay: as above; settings: 80 g/ha, 4 weeks after the treatment
Protocol: as §2

[15] = system: Avena fatua; assay: as above; settings: 80 g/ha, 4 weeks after the treatment
Protocol: as §2

[16] = system: Setaria viridis; assay: as above; settings: 80 g/ha, 4 weeks after the treatment
Protocol: as §2

[17] = system: wheat; assay: as above; settings: 80 g/ha, 4 weeks after the treatment
Protocol: as §2

[18] = system: oilseed rape; assay: as above; settings: 80 g/ha, 4 weeks after the treatment
Protocol: as §2

Row | SMILES | herbicidal activity against a plurality of harmful plants [1] | also measured
1 | COC(=O)C[C@@H](c1ccc(Cl)cc1)[C@@H](C#N)c1cccc(F)c1 [Example 1, methyl (3R,4R)-3-(4-chlorophenyl)-4-cyano-4-(3-fluorophenyl)butanoate] | good herbicidal activity | herbicidal activity against Viola tricolor [2]: 80 to 100%; herbicidal activity against Echinochloa crus-galli [3]: 80 to 100%; herbicidal activity against Polygonum convolvulus [4]: 80 to 100%; herbicidal activity against Amaranthus retroflexus [5]: 80 to 100%; herbicidal activity against Veronica persica [6]: 80 to 100%; herbicidal activity against Avena fatua [7]: 80 to 100%; herbicidal activity against Setaria viridis [8]: 80 to 100%; herbicidal activity against Lolium multiflorum [9]: 80 to 100%; herbicidal activity against Alopecurus myosuroides [10]: 80 to 100%
2 | COC(=O)C[C@@H](c1cc(F)cc(Cl)c1)[C@@H](C#N)c1cccc(Cl)c1 [Example 26] | good herbicidal activity | –
3 | COC(=O)C[C@@H](c1cccc(Cl)c1)[C@@H](C#N)c1ccc(Cl)c(F)c1 [Example 27] | good herbicidal activity | –
4 | COC(=O)C[C@@H](c1cccc([N+](=O)[O-])c1)[C@@H](C#N)c1ccc(F)c(F)c1 [Example 28] | good herbicidal activity | –
5 | COC(=O)C[C@@H](c1ccccc1)[C@@H](C#N)c1ccc(F)c(F)c1 [Example 29] | good herbicidal activity | –
6 | COC(=O)C[C@@H](c1cccc(F)c1)[C@@H](C#N)c1ccc(F)c(Cl)c1 [Example 30] | good herbicidal activity | –
7 | CCOC(=O)C[C@@H](c1ccc(OC)cc1)[C@@H](C#N)c1ccc(F)c(F)c1 [Example 31] | good herbicidal activity | –
8 | N#C[C@@H](c1cccc(F)c1)[C@@H](CC(=O)OC1COC1)c1ccc(Cl)cc1 [Example 53] | good herbicidal activity | –
9 | N#C[C@@H](c1cccc(F)c1)[C@@H](CC(=O)OCCSc1ccccc1)c1ccc(Cl)cc1 [Example 54] | good herbicidal activity | –
10 | N#C[C@@H](c1cccc(F)c1)[C@@H](CC(=O)OCC[S+]([O-])c1ccccc1)c1ccc(Cl)cc1 (stereo partly drawn) [Example 55] | good herbicidal activity | –
11 | CCOC(=O)C[C@@H](c1cccc(F)c1)[C@@H](C#N)c1ccc(F)c(F)c1 [Example 83] | good herbicidal activity | –
12 | CCCOC(=O)C[C@@H](c1cccc(F)c1)[C@@H](C#N)c1ccc(F)c(F)c1 [Example 84] | good herbicidal activity | –
13 | CC(C)OC(=O)C[C@@H](c1cccc(F)c1)[C@@H](C#N)c1ccc(F)c(F)c1 [Example 85] | good herbicidal activity | –
14 | CCCCOC(=O)C[C@@H](c1cccc(F)c1)[C@@H](C#N)c1ccc(F)c(F)c1 [Example 86] | good herbicidal activity | herbicidal activity against Viola tricolor [11]: 80%; herbicidal activity against Echinochloa crus-galli [12]: 80%; herbicidal activity against Polygonum convolvulus [13]: 80%; herbicidal activity against Veronica persica [14]: 70%; herbicidal activity against Avena fatua [15]: 90%; herbicidal activity against Setaria virides [16]: 80%; selectivity in wheat (damage) [17]: up to 10%; selectivity in oilseed rape (damage) [18]: 0%
15 | CC(C)COC(=O)C[C@@H](c1cccc(F)c1)[C@@H](C#N)c1ccc(F)c(F)c1 [Example 87] | good herbicidal activity | –
16 | N#C[C@@H](c1ccc(F)c(F)c1)[C@@H](CC(=O)O)c1cccc(Cl)c1 [Example 107, (3R,4R)-3-(3-Chlorophenyl)-4-cyano-4-(3,4-difluorophenyl)butanoic acid] | good herbicidal activity | –
17 | CCOC(=O)C[C@@H](c1cccc(Cl)c1)[C@@H](C#N)c1ccc(F)c(F)c1 [Example 108] | good herbicidal activity | –

Row | SMILES | herbicidal activity against a plurality of harmful plants [1] | also measured
18 | CCCCOC(=O)C[C@@H](c1cccc(Cl)c1)[C@@H](C#N)c1ccc(F)c(F)c1 [Example 111] | good herbicidal activity | –
19 | CC(C)COC(=O)C[C@@H](c1cccc(Cl)c1)[C@@H](C#N)c1ccc(F)c(F)c1 [Example 112] | good herbicidal activity | –
20 | COC(=O)C[C@@H](c1c(F)cccc1F)[C@@H](C#N)c1cccc(F)c1 [Example 162] | good herbicidal activity | –
21 | COC(=O)C[C@@H](c1c(F)cccc1F)[C@@H](C#N)c1ccc(F)c(F)c1 [Example 174] | good herbicidal activity | –
22 | COC(=O)C[C@@H](c1cc(F)ccc1F)[C@@H](C#N)c1ccc(Cl)c(Cl)c1 [Example 208] | good herbicidal activity | –
23 | COC(=O)C[C@@H](c1c(F)cccc1F)[C@@H](C#N)c1ccc(F)c(Cl)c1 [Example 227] | good herbicidal activity | –
24 | CCOC(=O)C[C@@H](c1c(F)cccc1F)[C@@H](C#N)c1ccc(F)c(F)c1 [Example 283] | good herbicidal activity | –
25 | COC(=O)C[C@@H](c1cccc(Cl)c1)[C@@H](C#N)c1cccc(C#N)c1 [Example 326] | good herbicidal activity | –
26 | COC(=O)C[C@@H](c1ccc(Cl)cc1)[C@@H](C#N)c1cccc(C#N)c1 [Example 329] | good herbicidal activity | –
27 | COC(=O)C[C@@H](c1cc(F)ccc1F)[C@@H](C#N)c1cccc(C#N)c1 [Example 330] | good herbicidal activity | –
28 | COC(=O)C[C@@H](c1cccc(F)c1)[C@@H](C#N)c1ccc(F)c(C#N)c1 [Example 339] | good herbicidal activity | –
29 | COC(=O)C[C@@H](c1cccc(Cl)c1)[C@@H](C#N)c1ccc(F)c(C#N)c1 [Example 340] | good herbicidal activity | –
30 | COC(=O)C[C@@H](c1ccc(Cl)cc1)[C@@H](C#N)c1ccc(F)c(C#N)c1 [Example 343] | good herbicidal activity | –
31 | COC(=O)C[C@@H](c1cc(F)ccc1F)[C@@H](C#N)c1ccc(F)c(C#N)c1 [Example 344] | good herbicidal activity | –
32 | COC(=O)C[C@@H](c1cc(F)ccc1F)[C@@H](C#N)c1ccc(F)c(Br)c1 [Example 358] | good herbicidal activity | –
33 | COC(=O)C[C@@H](c1c(F)cccc1F)[C@@H](C#N)c1ccc(F)c(Br)c1 [Example 359] | good herbicidal activity | –
34 | COC(=O)C[C@@H](c1ccc(OC)c(F)c1)[C@@H](C#N)c1ccc(F)c(F)c1 [Example 390] | good herbicidal activity | –
